According to patent publication US10604739B2, “Cardiomyocyte production” (Cellular Dynamics International, Inc., priority 2009, dated 2020):

Experiments:
Type in all cases: cell-based, human
iPS cells [1] = assay: H1152 duration and aggregate formation, Experiment 1: cardiomyocyte differentiation; parameters: Average Cardiomyocyte Yield: unit not given here; details: for Average # cTnT Cells/Liter (in millions) / Average % Troponin T+ / Average Cardiomyocyte Yield / Average Cell Count per flask (in millions) / Average ratio iPS to CM: day 14, T25
Procedure: (§1) The purpose of this Example was to see the effect of 1 day or 2 day treatment with the compound on Cardiomyocyte development. Initial testing with H1152 included the compound in the media: 1 μM on day one with the TeSR media and 0.5 μM on day 2 with the compound in the aggregate transition media. After adopting a new method which included the H1152 compound for 1 day at 1 μM only, there appeared to be a loss of efficiency with the initial cell survival, resulting in this study to determine if extended H1152 would increase cell survival without a negative impact on […]. Cardiomyocyte differentiation conditions and experimental parameters were summarized in Tables 11-12 and 13-14 for Experiments 1 and 2, respectively. Critical reagents and materials were obtained as described in the previous example.

iPS cells [2] = assay: H1152 duration and aggregate formation, Experiment 2: cardiomyocyte differentiation; parameters: Average Cardiomyocyte Yield: unit not given here; details: for Average # cTnT Cells/Liter (in millions) / Average % Troponin T+ / Average Cardiomyocyte Yield / Average Cell Count per flask (in millions) / Average ratio iPS to CM: day 14, T25
Procedure: as §1

IPS 6.1 cells = assay: Effect of different concentrations of H1152 on cell survival; details: one day dose, FIG. 28
Procedure: FIG. 28: Effect of different concentrations of H1152 on cell survival with one day dose of H1152 on IPS 6.1 cells.
Effect of different concentrations of H1152 was also tested on cell survival with one day dose of H1152 on IPS 6.1 cells (FIG. 28).

[3] = 3e5 cells/ml seeding, H1152 1 μM 24 hour exposure
[4] = 3e5 cells/ml seeding, H1152 1 μM 48 hour exposure
[5] = 5e5 cells/ml seeding, H1152 1 μM 24 hour exposure
[6] = 5e5 cells/ml seeding, H1152 1 μM 48 hour exposure
[7] = 7e5 cells/ml seeding, H1152 1 μM 24 hour exposure
[8] = 7e5 cells/ml seeding, H1152 1 μM 48 hour exposure
[9] = 10e5 cells/ml seeding, H1152 1 μM 24 hour exposure
[10] = 10e5 cells/ml seeding, H1152 1 μM 48 hour exposure
[11] = 15e5 cells/ml seeding, H1152 1 μM 24 hour exposure
[12] = 15e5 cells/ml seeding, H1152 1 μM 48 hour exposure

Cc1cncc2cccc(S(=O)(=O)N3CCCNC[C@@H]3C)c12 [H1152]
Average # cTnT Cells/Liter (in millions) (iPS cells [1]; [3]): 2.91 ± 1.27 millions
Average % Troponin T+ (iPS cells [1]; [3]): 6.83 ± 0.26%
Average Cardiomyocyte Yield (iPS cells [1]; [3]): 17445 ± 7677
Average Cell Count per flask (in millions) (iPS cells [1]; [3]): 0.25 ± 0.11 millions
Average ratio iPS to CM (iPS cells [1]; [3]): 99 ± 45
Average # cTnT Cells/Liter (in millions) (iPS cells [1]; [4]): 9.92 ± 0.25 millions
Average % Troponin T+ (iPS cells [1]; [4]): 4.40 ± 1.00%
Average Cardiomyocyte Yield (iPS cells [1]; [4]): 59575 ± 1514
Average Cell Count per flask (in millions) (iPS cells [1]; [4]): 1.39 ± 0.28 millions
Average ratio iPS to CM (iPS cells [1]; [4]): 25 ± 1
Average # cTnT Cells/Liter (in millions) (iPS cells [1]; [5]): 3.02 ± 1.66 millions
Average % Troponin T+ (iPS cells [1]; [5]): 6.26 ± 3.40%
Average Cardiomyocyte Yield (iPS cells [1]; [5]): 18123 ± 10004
Average Cell Count per flask (in millions) (iPS cells [1]; [5]): 0.46 ± 0.48 millions
Average ratio iPS to CM (iPS cells [1]; [5]): 180 ± 119
Average # cTnT Cells/Liter (in millions) (iPS cells [1]; [6]): 19.52 ± 8.01 millions
Average % Troponin T+ (iPS cells [1]; [6]): 3.37 ± 1.12%
Average Cardiomyocyte Yield (iPS cells [1]; [6]): 117137 ± 48094
Average Cell Count per flask (in millions) (iPS cells [1]; [6]): 3.41 ± 0.47 millions
Average ratio iPS to CM (iPS cells [1]; [6]): 24 ± 11
Average # cTnT Cells/Liter (in millions) (iPS cells [1]; [7]): 6.54 ± 0.91 millions
Average % Troponin T+ (iPS cells [1]; [7]): 5.41 ± 1.58%
Average Cardiomyocyte Yield (iPS cells [1]; [7]): 39272 ± 5494
Average Cell Count per flask (in millions) (iPS cells [1]; [7]): 0.77 ± 0.29 millions
Average ratio iPS to CM (iPS cells [1]; [7]): 90 ± 12
Average # cTnT Cells/Liter (in millions) (iPS cells [1]; [8]): 11.71 ± 6.74 millions
Average % Troponin T+ (iPS cells [1]; [8]): 2.23 ± 0.28%
Average Cardiomyocyte Yield (iPS cells [1]; [8]): 70299 ± 40479
Average Cell Count per flask (in millions) (iPS cells [1]; [8]): 3.19 ± 1.81 millions
Average ratio iPS to CM (iPS cells [1]; [8]): 72 ± 58
Average # cTnT Cells/Liter (in millions) (iPS cells [1]; [9]): 8.53 ± 3.67 millions
Average % Troponin T+ (iPS cells [1]; [9]): 3.29 ± 2.73%
Average Cardiomyocyte Yield (iPS cells [1]; [9]): 51174 ± 22025
Average Cell Count per flask (in millions) (iPS cells [1]; [9]): 1.95 ± 0.91 millions
Average ratio iPS to CM (iPS cells [1]; [9]): 116 ± 66
Average # cTnT Cells/Liter (in millions) (iPS cells [1]; [10]): 37.33 ± 11.90 millions
Average % Troponin T+ (iPS cells [1]; [10]): 4.70 ± 1.08%
Average Cardiomyocyte Yield (iPS cells [1]; [10]): 224015 ± 71410
Average Cell Count per flask (in millions) (iPS cells [1]; [10]): 4.69 ± 0.64 millions
Average ratio iPS to CM (iPS cells [1]; [10]): 24 ± 9
Average # cTnT Cells/Liter (in millions) (iPS cells [1]; [11]): 13.35 ± 5.17 millions
Average % Troponin T+ (iPS cells [1]; [11]): 2.05 ± 0.89%
Average Cardiomyocyte Yield (iPS cells [1]; [11]): 80131 ± 31034
Average Cell Count per flask (in millions) (iPS cells [1]; [11]): 4.01 ± 0.46 millions
Average ratio iPS to CM (iPS cells [1]; [11]): 105 ± 43
Average # cTnT Cells/Liter (in millions) (iPS cells [1]; [12]): 49.87 ± 21.23 millions
Average % Troponin T+ (iPS cells [1]; [12]): 4.84 ± 1.61%
Average Cardiomyocyte Yield (iPS cells [1]; [12]): 299246 ± 127411
Average Cell Count per flask (in millions) (iPS cells [1]; [12]): 6.16 ± 1.31 millions
Average ratio iPS to CM (iPS cells [1]; [12]): 28 ± 10
Effect of increasing H1152 exposure duration to 48 hours on cTnT yield (iPS cells [1]; Experiment 1, each cell density condition, 14 days): increased cTnT yield in each cell density condition
Cell survival (iPS cells [1]; two day treatment at 1 μM, each of the experiments): significant increase in the cell survival
Average # cTnT Cells/Liter (in millions) (iPS cells [2]; [3]): 11.06 ± 9.07 millions
Average % Troponin T+ (iPS cells [2]; [3]): 12.71 ± 1.72%
Average Cardiomyocyte Yield (iPS cells [2]; [3]): 66383 ± 54471
Average Cell Count per flask (in millions) (iPS cells [2]; [3]): 0.57 ± 0.54 millions
Average ratio iPS to CM (iPS cells [2]; [3]): 33 ± 20
Average # cTnT Cells/Liter (in millions) (iPS cells [2]; [4]): 34.67 ± 15.81 millions
Average % Troponin T+ (iPS cells [2]; [4]): 7.99 ± 2.24%
Average Cardiomyocyte Yield (iPS cells [2]; [4]): 208066 ± 94874
Average Cell Count per flask (in millions) (iPS cells [2]; [4]): 2.52 ± 0.51 millions
Average ratio iPS to CM (iPS cells [2]; [4]): 8 ± 4
Average # cTnT Cells/Liter (in millions) (iPS cells [2]; [5]): 8.84 ± 6.01 millions
Average % Troponin T+ (iPS cells [2]; [5]): 9.98 ± 2.40%
Average Cardiomyocyte Yield (iPS cells [2]; [5]): 53055 ± 36109
Average Cell Count per flask (in millions) (iPS cells [2]; [5]): 0.52 ± 0.35 millions
Average ratio iPS to CM (iPS cells [2]; [5]): 67 ± 49
Average # cTnT Cells/Liter (in millions) (iPS cells [2]; [6]): 38.40 ± 23.14 millions
Average % Troponin T+ (iPS cells [2]; [6]): 5.20 ± 3.33%
Average Cardiomyocyte Yield (iPS cells [2]; [6]): 230454 ± 138874
Average Cell Count per flask (in millions) (iPS cells [2]; [6]): 4.56 ± 0.48 millions
Average ratio iPS to CM (iPS cells [2]; [6]): 14 ± 7
Average # cTnT Cells/Liter (in millions) (iPS cells [2]; [9]): 14.18 ± 7.34 millions
Average % Troponin T+ (iPS cells [2]; [9]): 5.42 ± 1.08%
Average Cardiomyocyte Yield (iPS cells [2]; [9]): 85129 ± 44092
Average Cell Count per flask (in millions) (iPS cells [2]; [9]): 1.54 ± 063 millions
Average ratio iPS to CM (iPS cells [2]; [9]): 72 ± 42
Average # cTnT Cells/Liter (in millions) (iPS cells [2]; [10]): 16.03 ± 13.63 millions
Average % Troponin T+ (iPS cells [2]; [10]): 1.40 ± 1.45%
Average Cardiomyocyte Yield (iPS cells [2]; [10]): 96206 ± 81824
Average Cell Count per flask (in millions) (iPS cells [2]; [10]): 7.84 ± 1.14 millions
Average ratio iPS to CM (iPS cells [2]; [10]): 77 ± 44
Average # cTnT Cells/Liter (in millions) (iPS cells [2]; [11]): 28.54 ± 10.83 millions
Average % Troponin T+ (iPS cells [2]; [11]): 6.48 ± 2.42%
Average Cardiomyocyte Yield (iPS cells [2]; [11]): 171264 ± 65034
Average Cell Count per flask (in millions) (iPS cells [2]; [11]): 2.63 ± 0.14 millions
Average ratio iPS to CM (iPS cells [2]; [11]): 48 ± 17
Average # cTnT Cells/Liter (in millions) (iPS cells [2]; [12]): 28.13 ± 30.17 millions
Average % Troponin T+ (iPS cells [2]; [12]): 2.36 ± 2.03%
Average Cardiomyocyte Yield (iPS cells [2]; [12]): 168815 ± 181030
Average Cell Count per flask (in millions) (iPS cells [2]; [12]): 6.16 ± 1.31 millions
Average ratio iPS to CM (iPS cells [2]; [12]): 97 ± 85
Effect of increasing H1152 exposure duration to 48 hours on cTnT yield (iPS cells [2]; Experiment 2, cultures initially seeded with 3e5 and 5e5 cells/mL, 14 days): increased cTnT yield in the cultures initially seeded with 3e5 and 5e5 cells/mL
Optimal concentration for aggregate formation (IPS 6.1 cells): 1 µM
